The subject of assay [1] is phospho-p90RSK in A375 cell line. As to the kind of experiment: A375 Phospho-p90RSK Cellular Assay. Format: cell-based, human. Particulars: A375 cells, 2 hours incubation. The protocol: (§1) All compounds or DMSO (dimethyl sulphoxide) for the ERK2 Mass Spectrometry and A375 phospho-p90RSK assays were dispensed from source plates containing compounds at 10 mM in 100% (v/v) DMSO or 100% DMSO, directly into assay plates using an Echo 555 Acoustic dispenser (Labcyte Inc™). Depending on the assay, two separate plate preparations were followed. In Workflow A, 10 mM compound stocks were diluted 1:100 using a fixed-tip 96-head Agilent VPrep liquid handler (Agilent Technologies, Santa Clara, Calif.) to give four intermediate dilutions (10 mM, 100 μM, 1 μM, 10 nM). In Workflow B, 10 mM compound stocks were diluted 1:10 using a Tecan Freedom Evo (Tecan Group Ltd., Switzerland), and then 1:100 using the Echo 555 and Labcyte LX to produce three intermediate dilutions across three Labcyte qualified source plates (1 mM, 10 μM, 100 nM). These intermediate dilution plates were then used by the Echo 555 to generate final assay-ready compound plates with a 12 point dose range (10, 3, 1, 0.25, 0.1, 0.03, 0.01, 0.0025, 0.001, 0.0003, 0.0001, 0.0000125 μM) in order to calculate compound IC50s, with a total DMSO concentration in the assay of 1%. For the ERK2 Mass Spectrometry assay Workflow B was used. For the A375 phospho-p90RSK cell assay, the intermediate 1:100 dilution plate described in Workflow A was used by the Echo to dispense compounds and DMSO directly into the cell plates with a 12 point dose range (30, 10, 3.125, 1.25, 0.3, 0.1, 0.03125, 0.0125, 0.003, 0.001, 0.0003125, 0.00003 μM) in order to calculate compound IC50's, with a total DMSO concentration in the assay of 0.3%.
A375 Phospho-p90RSK Cellular Assay
A375 cells were cultured in cell media composed of DMEM (Dulbecco's modified Eagle's medium), 10% (v/v) Foetal Calf Serum and 1% (v/v) L-Glutamine. After harvesting, cells were dispensed into black, 384-well Costar plates (#3712, Corning) to give 2400 cells per well in a total volume of 40 μl cell media, and were incubated overnight at 37° C., 90% relative humidity and 5% CO2 in a rotating incubator. Test compounds and reference controls were dosed directly into the cell plates using a Labcyte Echo 555 acoustic dispenser. The cell plates were then incubated for 2 hours at 37° C. before being fixed by the addition of 20 μl 12% formaldehyde in PBS/A (4% final concentration), followed by a 20 minute room temperature incubation, and then a 2× wash with 150 μl PBS/A (phosphate buffered saline containing albumin) using a BioTek ELx405 platewasher. Cells were permeabilised with 20 μl 0.1% Triton X-100 in PBS/A for 20 minutes at room temperature, and then washed 1× with 100 μl PBS/A. Primary phospho-p90RSK (Thr359) (D1E9) rabbit monoclonal antibody (#8753, Cell Signaling Technology) was diluted 1:1000 in assay buffer (0.05% (v/v) Tween, 5% (v/v) Foetal Calf Serum, in PBS/A), 20 μl added per well, and plates were incubated at 4° C. overnight. Cell plates were washed 2× with 200 μl PBS/T (phosphate buffered saline containing Tween-20), then 20 μl 1:500 dilution in assay buffer of Alexa Fluor® 647 goat anti-rabbit IgG secondary antibody (#A31573, Molecular Probes, Life Technologies), with a 1:5000 dilution of Hoechst 33342, was added per well. Following a 90 minute incubation at room temperature, plates were washed 2× with 200 μl PBS/T, and 40 μl PBS/A was added per well. Stained cell plates were covered with black lid seals, and then read on a Cellomics ArrayScan™ VTI imaging platform (Thermo Scientific), using an XF53 filter with 10× objective, with a LED light source set-up to analyse nuclear staining with Hoechst 33342 (405 nm) and secondary antibody staining of phospho-p90RSK (647 nm). Data was analysed and IC50's were calculated using Genedata Screener® software.

The subject of assay [2] is A549 xenograft. As to the kind of experiment: Tumour growth inhibition in A549 xenograft model. Type of assay: in vivo, mice. The following applies: selumetinib 25 mg/kg BiD or Example 18a 25 mg/kg QD, peroral, continuously for 3 weeks, relative to vehicle. The protocol:
A549 is a human non small cell lung cancer line carrying an oncogenic mutation in the KRAS gene (G12S). Female nude mice (Harlan, UK) were implanted subcutaneously (s.c.) on the left flank, with 5×10^6 A549 cells (ATCC) per mouse.
Tumour growth was monitored by twice weekly calliper measurement and volumes calculated using elliptical formula (pi/6×width×width×length). Once tumours had reached a volume of ˜200-300 mm^3 animals were randomised into groups of 7-11 and were treated with a continuous combination schedule of selumetinib (ARRY-142886) 25 mg/kg BiD and Example 18a 25 mg/kg QD (four hours after first selumetinib dose), both were dosed by peroral route. Tumour volumes were measured twice weekly after dosing commenced.
Selumetinib was formulated in HPMC/Tween (0.5% Methocel [hydroxypropyl methocellulose]/0.1% Polysorbate 80), the suspension was stirred over night. Example 18a was formulated in 10% DMSO, 90% of a 40% kleptose solution (Kleptose is sourced from Roquette—Pharma [Trademarked] Hydroxypropyl betacyclodextrin—suitable for in-vivo use and formulations).
Studies were performed in the A549 xenograft model. Selumetinib was dosed twice daily (BiD) 8 hours apart and Example 18a was dosed once daily (QD) 4 hours after the first selumetinib dose. Both compounds were dosed continuously for 3 weeks. Both vehicles were dosed in the vehicle group.

The target of assay [3] is T1, ERK2 (Homo sapiens, UniProt P28482).
T1 construct: made in house
T1 sequence (P28482 whole entry): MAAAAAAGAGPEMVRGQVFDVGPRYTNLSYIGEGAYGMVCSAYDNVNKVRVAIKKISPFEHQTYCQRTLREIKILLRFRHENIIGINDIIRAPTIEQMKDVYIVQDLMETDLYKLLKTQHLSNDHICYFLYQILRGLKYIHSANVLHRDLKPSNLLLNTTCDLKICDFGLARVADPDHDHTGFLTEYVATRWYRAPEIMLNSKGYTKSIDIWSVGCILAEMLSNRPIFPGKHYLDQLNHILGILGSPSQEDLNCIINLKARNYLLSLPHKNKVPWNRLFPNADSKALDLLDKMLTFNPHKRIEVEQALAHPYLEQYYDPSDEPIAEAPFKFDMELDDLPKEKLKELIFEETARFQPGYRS
Kind of assay: ERK2 Rapidfire Mass Spectrometry Inhibition of Catalysis Assay. Type of assay: biochemical. Particulars: 1.2 nM ERK2, 16 μM Erktide, 120 μM ATP (measured Km), 15 minute pre-incubation; read-out: ERK2 Mass Spectrometry Enzyme IC50. As for the experimental part:
as §1
ERK2 Rapidfire Mass Spectrometry Inhibition of Catalysis Assay
MEK U911-activated ERK2 protein was expressed and purified in-house. Enzyme and substrate solutions were made up in assay buffer consisting of 50 mM Tris (pH 7.5), 10 mM MgCl2, 0.1 mM EGTA (ethylene glycol tetraacetic acid), 10 mM DTT (dithiothreitol) and 0.01% (v/v) CHAPS (3-[(3-Cholamidopropyl)dimethylammonio]-1-propanesulfonate). 1.2 nM ERK2 protein was prepared in assay buffer and 10 μl was dispensed into each well of a polypropylene, 384-well plate (#781201, Greiner) containing test and reference control compounds. […] The reaction was allowed to progress for 20 minutes at room temperature before being quenched by the addition of 80 al 1% (v/v) formic acid. The assay plates were then run on the RapidFire Mass Spectrometry platform (Agilent) to measure substrate (unphosphorylated Erktide) and product (phosphorylated Erktide) levels. Data was analysed and IC50's (half maximal inhibitory concentration) were calculated using Genedata Screener® software.

The IC50 is the point on the concentration scale where inhibition reaches its midpoint.

For `COC[C@H]1Cn2cc(-c3nc(Nc4ccnn4C)ncc3C)nc2C(=O)N1Cc1ccc(F)c(F)c1` [Example 18a, (R)-7-(3,4-Difluorobenzyl)-6-(methoxymethyl)-2-(5-methyl-2-((1-methyl-1H-pyrazol-5-yl)amino)pyrimidin-4-yl)-6,7-dihydroimidazo[1,2-a]pyrazin-8(5H)-one Ethanesulfonic acid adduct Form 1], the IC50 in assay [1] is 7.4 nM; in assay [3], 0.6 nM. Besides, the “tumour growth, single agent” value in assay [2] was “reduced tumour growth relative to vehicle only control”.
Take `Cc1cnc(Nc2ccnn2C)nc1-c1cn2c(n1)C(=O)N(Cc1ccnc(C(F)(F)F)c1)[C@@H](C)C2` [Example 30, (S)-6-Methyl-2-(5-methyl-2-((1-methyl-1H-pyrazol-5-yl)amino)pyrimidin-4-yl)-7-((2-(trifluoromethyl)pyridin-4-yl)methyl)-6,7-dihydroimidazo[1,2-a]pyrazin-8(5H)-one]: the IC50 is 200 nM in assay [1] (Homo sapiens, A-375) and 0.7 nM in assay [3].
Take `COc1cc(CN2C(=O)c3nc(-c4nc(Nc5ccnn5C)ncc4C)cn3C[C@@H]2C)ccc1F` [Example 24, (S)-7-(4-Fluoro-3-methoxybenzyl)-6-methyl-2-(5-methyl-2-((1-methyl-1H-pyrazol-5-yl)amino)pyrimidin-4-yl)-6,7-dihydroimidazo[1,2-a]pyrazin-8(5H)-one]: the IC50 in assay [1] (Homo sapiens, A-375) was determined as 84 nM; in assay [3] it was 0.5 nM.
As for `C[C@H]1Cn2cc(-c3ccnc(Nc4ccnn4C)n3)nc2C(=O)N1Cc1ccc(F)c(F)c1` [Example 4, (S)-7-(3,4-Difluorobenzyl)-6-methyl-2-(2-((1-methyl-1H-pyrazol-5-yl)amino)pyrimidin-4-yl)-6,7-dihydroimidazo[1,2-a]pyrazin-8(5H)-one], the IC50 in assay [1] (Homo sapiens, A-375) was 630 nM; in assay [3] it was 1.8 nM.
`C[C@H]1Cn2cc(-c3ccnc(Nc4ccnn4C)n3)nc2C(=O)N1Cc1cccc(Cl)c1` [Example 2, (S)-7-(3-Chlorobenzyl)-6-methyl-2-(2-((1-methyl-1H-pyrazol-5-yl)amino)pyrimidin-4-yl)-6,7-dihydroimidazo[1,2-a]pyrazin-8(5H)-one]: the IC50 in assay [1] (Homo sapiens, A-375) is 86 nM; in assay [3] it was 0.7 nM.
Regarding `Cc1cnc(Nc2ccnn2C)nc1-c1cn2c(n1)C(=O)N(Cc1cccc(Cl)c1)CC2` [Example 13, 7-(3-Chlorobenzyl)-2-(5-methyl-2-((1-methyl-1H-pyrazol-5-yl)amino)pyrimidin-4-yl)-6,7-dihydroimidazo[1,2-a]pyrazin-8(5H)-one], the IC50 in assay [1] (Homo sapiens, A-375, 2 h) is 12 nM; in assay [3], 0.3 nM.
As for `C[C@H]1Cn2cc(-c3nc(Nc4ccnn4C)ncc3Cl)nc2C(=O)N1Cc1ccc(F)c(F)c1` [Example 6, (S)-2-(5-Chloro-2-((1-methyl-1H-pyrazol-5-yl)amino)pyrimidin-4-yl)-7-(3,4-difluorobenzyl)-6-methyl-6,7-dihydroimidazo[1,2-a]pyrazin-8(5H)-one], the IC50 in assay [1] (Homo sapiens, A-375) came out at 25 nM; in assay [3], 0.6 nM.
Consider `Cc1cnc(Nc2ccnn2C)nc1-c1cn2c(n1)C(=O)N(Cc1cc(F)cc(F)c1)[C@@H](C)C2` [Example 22, (S)-7-(3,5-Difluorobenzyl)-6-methyl-2-(5-methyl-2-((1-methyl-1H-pyrazol-5-L)amino)pyrimidin-4-yl)-6,7-dihydroimidazo[1,2-a]pyrazin-8(5H)-one], for which the IC50 worked out at 19 nM in assay [1] (Homo sapiens, A-375) and 0.8 nM in assay [3].
The like results for `Cc1cnc(Nc2ccnn2C)nc1-c1cn2c(n1)C(=O)N(Cc1ccc(F)c(Cl)c1)CC2` [Example 12, 7-(3-Chloro-4-fluorobenzyl)-2-(5-methyl-2-((1-methyl-1H-pyrazol-5-yl)amino)pyrimidin-4-yl)-6,7-dihydroimidazo[1,2-a]pyrazin-8(5H)-one] were, in that order, 3 nM and 0.6 nM.

The values above are taken from US10202391B2, “Chemical compounds” (AstraZeneca AB, priority 2015, dated 2019).
